Assay results: US11034659B2, “Pyrimidine derivative” (Daiichi Sankyo Company, Limited, priority 2016, dated 2021)
Counter-ions that a name gives are not always drawn.

Tested on: CuFi-1 cells
Assay: Secretory activity for chloride ions (MQAE fluorescence) in CuFi-1 cells
Type: cell-based
Settings: zinc final concentration 10 μM
Method: Measurement of the secretory activity for chloride ions was performed in accordance with a previous report (West and Molloy, 1996). CuFi-1 cells were plated on a 96 well plate in 3×10^4 cells/well and incubated for two nights. After removing the culture medium, 100 μL/well of N-(ethoxycarbonylmethyl)-6-methoxyquinolinium bromide (MQAE) (diluted with culture medium and the concentration adjusted to 5 mM) was added. After the addition of MQAE, the cells were incubated for one night so that the indicator was passively loaded. After the loading, the cells were washed two times with Assay buffer, and 100 μL/well of Assay buffer was added. The secretory capacity for chloride ions was measured using FlexStation 1 (fluorescence wavelength of Ex: 355 nm/Em: 460 nm). In order to measure the basic value, nothing was added for 34 seconds immediately after the start of the measurement. Then, at this point, 100 μL/well of the test compound and zinc (final concentration: 10 μM) diluted with Assay buffer, which is free of chloride ions, was added, and the measurement was continued for 86 seconds (total measurement time: 120 seconds). The secretory capacity for chloride ions was calculated by dividing the average of RFU values in 10 seconds between 110 seconds and 120 seconds after the start of the measurement with the average between 0 second and 34 seconds (the basic value). The secretory activity for chloride ions of the test compound (EC50 value) was calculated by obtaining the secretory capacity for chloride ions at each concentration of the serially diluted test compound, and determining a concentration of the test compound that provides a secretory capacity of 50% from two secretory capacities and concentrations sandwiching 50% of the maximum response of each compound.

[1] = Homo sapiens, CuFi-1, CuFi-1 cells

CCNc1nc(C(=O)O)nc(CC)c1Cc1ccc(Cl)cc1Cl [Example 15, 5-(2,4-Dichlorobenzyl)-4-ethyl-6-(ethylamino)pyrimidine-2-carboxylic acid]
EC50 [1]: 10.8 nM

CCOc1nc(C(=O)O)nc(C)c1Cc1ccc(Cl)cc1Cl [Example 33]
EC50 [1]: 18.4 nM

CCNc1nc(C(=O)O)nc(C)c1Sc1ccccc1C(F)(F)F [Example 24]
EC50 [1]: 12.9 nM

CCCc1nc(C(=O)O)nc(OC)c1Cc1ccccc1Cl [Example 45, hydrochloride]
EC50 [1]: 14.7 nM

CCOc1nc(C(=O)O)nc(CC)c1Cc1ccccc1Cl [Example 62]
EC50 [1]: 4.9 nM

CCNc1nc(C(=O)O)nc(C(C)C)c1Cc1ccc(Cl)cc1Cl [Example 9, 5-(2,4-Dichlorobenzyl)-4-(ethylamino)-6-isopropylpyrimidine-2-carboxylic acid]
EC50 [1]: 5.5 nM

CCOc1nc(C(=O)O)nc(CC)c1Cc1cccc(Cl)c1F [Example 60]
EC50 [1]: 12 nM

Cc1nc(C(=O)O)nc(OCc2ccccn2)c1Cc1ccccc1Cl [Example 95]
EC50 [1]: 3.3 nM

CCNc1nc(C(=O)O)nc(C)c1Sc1ccccc1F [Example 25]
EC50 [1]: 14.6 nM

Cc1nc(C(=O)O)nc(O[C@H]2C[C@H](C#N)C2)c1Cc1ccccc1Cl [Example 91]
EC50 [1]: 13.2 nM

CNc1nc(C(=O)O)nc(C)c1Sc1ccc(F)cc1Cl [Example 29]
EC50 [1]: 6.9 nM

CCNc1nc(C(=O)O)nc(C(C)C)c1Sc1ccccc1Cl [Example 19]
EC50 [1]: 13.1 nM

CCSc1nc(C(=O)O)nc(C)c1Cc1ccc(C#N)cc1Cl [Example 81]
EC50 [1]: 5.5 nM

CCNc1nc(C(=O)O)nc(C2CC2)c1Cc1ccc(Cl)cc1Cl [Example 10, 4-Cyclopropyl-5-(2,4-dichlorobenzyl)-6-(ethylamino)pyrimidine-2-carboxylic acid]
EC50 [1]: 7.3 nM

CCOc1nc(C(=O)O)nc(C)c1Cc1ccc(Cl)cc1F [Example 56]
EC50 [1]: 16 nM

CNc1nc(C(=O)O)nc(C)c1Cc1ccccc1Cl [Example 87, 5-(2-Chlorobenzyl)-4-methyl-6-(methylamino)pyrimidine-2-carboxylic acid]
EC50 [1]: 8.2 nM

Cc1nc(C(=O)O)nc(SCCO)c1Sc1ccc(Cl)cc1Cl [Example 82]
EC50 [1]: 30.8 nM

Cc1nc(C(=O)O)nc(OCc2ccccc2)c1Cc1ccccc1Cl [Example 90]
EC50 [1]: 6.4 nM

Cc1nc(C(=O)O)nc(OCc2cccc(C#N)c2)c1Cc1ccccc1Cl [Example 89, 5-(2-Chlorobenzyl)-4-((3-cyanobenzyl)oxy)-6-methylpyrimidine-2-carboxylic acid]
EC50 [1]: 5.1 nM

CSc1nc(C(=O)O)nc(C)c1Cc1ccccc1Cl [Example 76]
EC50 [1]: 15.2 nM

CSc1nc(C(=O)O)nc(C)c1Nc1ccccc1Cl [Example 85, 5-((2-Chlorophenyl)amino)-4-methyl-6-(methylthio)pyrimidine-2-carboxylic acid hydrochloride]
EC50 [1]: 30.2 nM

CCc1nc(C(=O)O)nc(NC)c1Cc1ccccc1Cl [Example 11, 5-(2-Chlorobenzyl)-4-ethyl-6-(methylamino)pyrimidine-2-carboxylic acid]
EC50 [1]: 11.1 nM

COc1nc(C(=O)O)nc(C)c1Cc1cccc(Cl)c1Cl [Example 66]
EC50 [1]: 17.4 nM

CCNc1nc(C(=O)O)nc(CC)c1Sc1ccccc1Cl [Example 20]
EC50 [1]: 5.9 nM

Cc1nc(C(=O)O)nc(CCc2ccncc2)c1Cc1ccccc1Cl [Example 101, 5-(2-Chlorobenzyl)-4-methyl-6-(2-(pyridin-4-yl)ethyl)pyrimidine-2-carboxylic acid]
EC50 [1]: 8.9 nM

CCN(CC)c1nc(C(=O)O)nc(C)c1Cc1ccc(Cl)cc1Cl [Example 3, 5-(2,4-Dichlorobenzyl)-4-(diethylamino)-6-methylpyrimidine-2-carboxylic acid hydrochloride]
EC50 [1]: 53 nM

CCSc1nc(C(=O)O)nc(C)c1Oc1ccc(Cl)cc1Cl [Example 80]
EC50 [1]: 49.4 nM

CCc1nc(C(=O)O)nc(SC)c1Sc1ccc(Cl)cc1Cl [Example 77]
EC50 [1]: 14.6 nM

COc1nc(C(=O)O)nc(C)c1Cc1ccc(Cl)cc1Cl [Example 32, 5-(2,4-Dichlorobenzyl)-4-methoxy-6-methylpyrimidine-2-carboxylic acid]
EC50 [1]: 17.1 nM

Cc1nc(C(=O)O)nc(SC(C)C)c1Cc1ccccc1Cl [Example 84]
EC50 [1]: 10.4 nM

COc1nc(C(=O)O)nc(C)c1Cc1ccccc1C(C)C [Example 73]
EC50 [1]: 35.2 nM

CSc1nc(C(=O)O)nc(C)c1Cc1ccc(Cl)cc1Cl [Example 75, 5-(2,4-Dichlorobenzyl)-4-methyl-6-(methylthio)pyrimidine-2-carboxylic acid]
EC50 [1]: 3.7 nM

CCOc1nc(C(=O)O)nc(CC)c1Cc1cccc(Cl)c1Cl [Example 48, 5-(2,3-Dichlorobenzyl)-4-ethoxy-6-ethylpyrimidine-2-carboxylic acid]
EC50 [1]: 9.4 nM

CCNc1nc(C(=O)O)nc(C)c1Sc1ccccc1Cl [Example 22, 5-((2-Chlorophenyl)thio)-4-(ethylamino)-6-methylpyrimidine-2-carboxylic acid hydrochloride]
EC50 (CuFi-1 cells, hydrochloride): 7.1 nM

COc1nc(C(=O)O)nc(C(C)C)c1Cc1ccccc1Cl [Example 70]
EC50 [1]: 59.9 nM
